From article PMC9231138, “Dihydrotanshinone I Enhances Cell Adhesion and Inhibits Cell Migration in Osteosarcoma U−2 OS Cells through CD44 and Chemokine Signaling” (Molecules, 2022) come the findings set out here.

The test system of one test is CD44. The experiment in a line: RNA-seq transcriptome, CD44 expression. In kind it is cell-based, human. The settings on record: DS−1 6.25 µM, 24 h. How it is done:
Sample preparation: U−2 OS cells were seeded in a 10 cm culture dish, and we cultured them to the logarithmic growth phase, suctioned the previous medium, and added new medium with DS−1 at 0 and 6.25 μM; each group was repeated two times. After 24 h of culture, the dish was washed with PBS reagent 3 times. One milliliter of TRIzol reagent was added to every dish for cell lysate and then collected in centrifuge tubes.
Transcriptome sequencing and analysis were carried out by Novogene Bioinformatics Technology Co., Ltd. (Beijing, China).
Raw data in the fastq format were firstly processed through in-house Perl scripts. In this step, clean data were obtained by removing reads containing adapter or containing ploy-N and low-quality reads from raw data. […]
Reference genome and gene model annotation files were downloaded from the genome website directly. The index of the reference genome was built using Hisat2 v2.0.5 (https://github.com/DaehwanKimLab/hisat2, accessed on 4 May 2022), and paired-end clean reads were aligned to the reference genome using Hisat2 v2.0.5. FeatureCounts v1.5.0-p3 (https://github.com/byee4/featureCounts, accessed on 4 May 2022) was used to count the reads numbers mapped to each gene. Then the Fragments PerKilobase of transcript sequence per Millions […] (FPKMs) of each gene were calculated based on the length of the gene and reads’ count mapped to this gene. […]

The test system of the next test is NRK−49F cells. The experiment in a line: Cell adhesion against trypsin digestion, NRK−49F cells. In kind it is cell-based, rat. The conditions noted are these: DS-1 6.25, 12.5 μM for 24 h.
The next test has as its system FOXO1. The experiment in a line: FOXO1 by immunofluorescence and immunoblotting. The format is cell-based, human. The conditions noted are these: DS−1 3.125, 6.25, and 12.5 μM. How it is done: Figure 3 DS−1 inhibited the expression of transcription factor FOXO1 in U−2 OS cells. (A) U−2 OS cells were treated with DS−1 at 0, 3.125, 6.25, and 12.5 μM, and the changes in FOXO1 were analyzed by immunofluorescent staining, followed by confocal microscopy imaging. (B) U−2OS cells were treated with DS−1 at 0, 3.125, 6.25, and 12.5 μM, and FOXO1 and pFOXO1 were analyzed by Western blot; the changes were presented in histograms (C,D). (E) U−2 OS cells were treated with DS−1 at 6.25 μM for 0, 12, 24, and 48 h, then FOXO1 was analyzed by Western blot, and the changes are presented in the histogram (F). (G) The pFOXO1/FOXO1 value is shown in the histogram. […]
Sample preparation: U−2 OS cells seeded in 10 cm Petri dishes were collected and washed with ice-cold PBS and RIPA lysis buffer with PMAF; phosphatase inhibitor was added, and the tubes were placed on ice for 30 min and vortexed for 30 s at intervals of 10 min. […] The protein samples were placed on ice, and the concentration of each protein sample was measured by the BCA kit (Thermo). […]
Antibody staining: We blocked the membrane for 1 h at room temperature using 5% blocking solution, then incubated the membrane with appropriate dilutions of the primary antibody in the blocking solution overnight at 4 °C. […] Images were acquired using darkroom development techniques for chemiluminescence and analyzed by Image J.
In general terms: In western blotting, separated proteins are transferred to a membrane and probed.

Another test relates to slug. The experiment in a line: RT-PCR slug mRNA in U−2 OS cells. The conditions noted are these: 24 h. The format is cell-based, human. How it is done: Total RNA within cells was extracted by the RNAeasy™ Animal Long RNA Isolation Kit with Spin Column (Shanghai, Beyotime); the concentrations and OD260/OD280 and OD230/OD260 values were measured by NanoDrop. Five micrograms of RNA was used for reverse transcription; each sample was diluted to 16 μL, and 4 μL of synthesized premix solution (5×) was added, then the mixtures were placed in a 42 °C water bath for 10 min, then an 80 °C water bath for 10 min to deactivate reverse transcriptase. After reverse transcription, each sample was diluted to 140 μL. PCR amplification was carried out by the ABI700 real-time PCR system, and the amplification reaction was detected with a SYBR probe. After PCR, actin and GAPDH were used as internal references, and the relative standard curve method (2^−ΔΔcT) determined the relative expression of mRNA.

Regarding `Cc1cccc2c3c(ccc12)C1=C(C(=O)C3=O)[C@@H](C)CO1` [DS−1, 15,16-Dihydrotanshinone I], the “upregulation of CD44 in transcriptome” value in the test with CD44 came out at 2.94 ± 0.55 fold. Besides, in the test with NRK−49F cells, the “cell adhesion on the cell culture plate against trypsin digestion” value was “stronger cell adhesion”. The “expression of FOXO1” value with FOXO1 is reported as “reduced”. Besides, the “slug mRNA, fold of the control group” value in the test with slug (DS−1 5.0 µM) worked out at 0.58 ± 0.13 fold; in the test on slug (DS−1 7.5 µM), 0.45 ± 0.07 fold.
